The IC50 is the concentration needed to halve the response being measured.

The text below walks through data of publication PMC10935294, “Biodirected Screening and Preparation of Larimichthys crocea Angiotensin-I-Converting Enzyme-Inhibitory Peptides by a Combined In Vitro and In Silico Approach” (Molecules, 2024).

Assay [1] addresses T1, ACE (Oryctolagus cuniculus, UniProt P12822).
T1 sequence (P12822 34-1310): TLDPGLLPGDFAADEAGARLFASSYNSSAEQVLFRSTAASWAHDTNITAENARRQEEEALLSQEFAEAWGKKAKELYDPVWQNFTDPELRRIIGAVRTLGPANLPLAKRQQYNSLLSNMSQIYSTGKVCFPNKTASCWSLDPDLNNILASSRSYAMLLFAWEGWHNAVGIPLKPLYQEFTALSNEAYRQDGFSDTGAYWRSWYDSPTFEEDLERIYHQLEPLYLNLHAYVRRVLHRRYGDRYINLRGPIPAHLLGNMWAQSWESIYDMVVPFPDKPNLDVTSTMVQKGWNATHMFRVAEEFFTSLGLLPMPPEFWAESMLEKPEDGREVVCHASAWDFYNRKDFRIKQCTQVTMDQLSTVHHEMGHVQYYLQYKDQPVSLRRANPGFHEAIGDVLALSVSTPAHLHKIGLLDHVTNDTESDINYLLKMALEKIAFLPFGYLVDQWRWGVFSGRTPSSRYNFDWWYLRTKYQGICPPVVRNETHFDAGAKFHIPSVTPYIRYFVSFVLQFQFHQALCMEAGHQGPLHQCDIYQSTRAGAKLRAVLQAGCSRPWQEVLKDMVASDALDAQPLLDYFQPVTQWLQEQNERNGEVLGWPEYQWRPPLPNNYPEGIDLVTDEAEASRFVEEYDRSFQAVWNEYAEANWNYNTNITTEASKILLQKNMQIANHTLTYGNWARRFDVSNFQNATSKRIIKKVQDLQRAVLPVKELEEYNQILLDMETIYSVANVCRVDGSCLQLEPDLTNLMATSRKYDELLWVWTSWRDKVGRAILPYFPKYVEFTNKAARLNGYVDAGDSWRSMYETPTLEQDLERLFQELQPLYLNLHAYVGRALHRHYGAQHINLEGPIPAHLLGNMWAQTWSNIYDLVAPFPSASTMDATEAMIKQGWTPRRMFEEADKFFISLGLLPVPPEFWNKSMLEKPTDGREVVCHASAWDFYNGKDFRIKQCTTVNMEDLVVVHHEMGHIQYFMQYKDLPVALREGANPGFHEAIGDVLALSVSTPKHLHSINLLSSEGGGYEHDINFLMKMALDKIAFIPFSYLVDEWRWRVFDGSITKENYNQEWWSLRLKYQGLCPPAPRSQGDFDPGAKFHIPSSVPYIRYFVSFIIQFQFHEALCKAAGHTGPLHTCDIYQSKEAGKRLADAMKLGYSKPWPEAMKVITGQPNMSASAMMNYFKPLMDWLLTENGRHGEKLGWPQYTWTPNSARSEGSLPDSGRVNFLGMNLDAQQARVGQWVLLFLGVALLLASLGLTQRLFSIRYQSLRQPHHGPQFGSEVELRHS
As to the kind of experiment: ACE-inhibitory activity (HHL substrate, HPLC determination of hippuric acid). Format: biochemical. To be noted: synthetic peptides, n = 3, mean ± SD; read-out: IC50 value before digestion. As for the experimental part:
(§1) The methods were previously established in our laboratory. […] Then, 60 μL of peptide samples (1 mg/mL) and 20 μL of ACE solution (0.1 U/mL) were placed in a 37 °C water bath for 10 min, and 50 μL of hippuryl-histidyl-leucine (HHL) solution (1 mM) was added to react for 60 min. Finally, the reaction was terminated by adding 1 M HCL (100 μL). The sample solution of the determination group was replaced by 60 μL boric acid buffer solution (pH = 8.3 0.3 M NaCl) in the control tube. Then, 10 μL boric acid buffer was put into the blank control tube instead of the ACE solution used in the control group. Column chromatography conditions were as follows: Waters-C18, 5 μm, 4.6 mm × 250 mm; detection wavelength: 228 nm; mobile phase: 80% A: 0.1% formic acid + 0.1% trifluoroacetic acid + 98% deionized water, 20% B: 100% acetonitrile; flow rate: 0.8 mL/min; column temperature: 30 °C; injection volume: 10 μL. The ACE-inhibition rate was calculated by Formula (1):(1) ACEinhibitoryrate%=(HAc−HAs)/([HA]c−[HA]H)×100% where HA is the concentration of hippuric acid, [HA]c is the concentration of HA in the control sample, [HA]s is the sample HA concentration, and [HA]H is the blank control HA concentration. The IC50 value was defined as the inhibitor concentration inhibiting 50% of ACE activity. First, the in vitro ACE inhibition rate was determined for samples of different concentrations. Then, the fitting curve and equation were drawn with the sample mass concentration as abscissa and ACE inhibition rate as ordinate. The value of IC50 was calculated according to the fitted curve.

Assay [2] concerns the target T1, ACE. As to the kind of experiment: ACE-inhibitory activity after simulated in vitro gastrointestinal digestion (pepsin, trypsin). The following applies: pepsin pH 2, 2 h, then trypsin pH 7.5, 2 h, 37 °C; mean ± SD. Format: biochemical. As for the experimental part:
as §1
A slight modification of the research methodology based on the previous study was implemented. With slight modification, the peptide samples were dissolved in deionized water (1 mg/mL), adjusted the pH to 2 with 1 M HCl, pepsin (2% w/w) was added, and the reaction was run for 2 h at 37 °C in the temperature shaker. The reaction was adjusted to pH = 7.5 with 2 M NaOH, and trypsin (2% w/w) was added for 2 h. Then, it was placed in boiling water at 100 °C for 10 min and finally removed to wait for the temperature to decrease to room temperature and centrifuged to detect their ACE activity.

In assay [3] the target is T1, ACE. The following applies: cited from earlier work.

Where two headings read alike, the source gives them in different places. No end group written: not given here.

With “IPYADFK [IPYADFK, Ile-Pro-Tyr-Ala-Asp-Phe-Lys]”, the IC50 at ACE [1] is 0.63 ± 0.09 µM; on ACE [2] it was 0.8 ± 0.08 µM.
With Tyr-Asn-Leu [YNL], the Reported activity entry on ACE [3] is listed as “ACE-inhibitory activity”.
Regarding VVLASLK, the IC50 in the assay with ACE [3] (peptides from Pacific saury) is 962 µM.
VGLFPSRSF: the “Form of ACE inhibition” value with ACE [3] (peptide from tilapia skin) is “non-competitive inhibition”.
In the case of “NWPWMK [NWPWMK, Asn-Trp-Pro-Trp-Met-Lys]”, the results for the IC50 at ACE [1] and against ACE [2] were 6.23 ± 0.34 µM and 7.27 ± 0.17 µM, respectively.
As to “LYDHLGK [LYDHLGK, Leu-Tyr-Asp-His-Leu-Gly-Lys]”, the IC50 is 9.41 ± 0.24 µM on ACE [1] and 24.3 ± 0.29 µM against ACE [2].
Consider FDGSPVGY, for which the “Form of ACE inhibition” value with ACE [3] is reported as “competitively combine with the center site of ACE”.
As for “INEMLDTK [INEMLDTK, Ile-Asn-Glu-Met-Leu-Asp-Try-Lys]”, the IC50 on ACE [1] was 6.53 ± 0.21 µM; against ACE [2], 15.65 ± 0.15 µM.
“IHFGTTGK [IHFGTTGK, Ile-His-Phe-Gly-Thr-Thr-Gly-Lys]”: the IC50 at ACE [1] was 5.34 ± 0.15 µM; at ACE [2], 33.73 ± 0.23 µM.
For VFDGVLRPGQ, the “Form of ACE inhibition” value with ACE [3] was “non-competitive inhibition”.
Regarding “FYEPFM [FYEPFM, Phe-Tyr-Glu-Pro-Phe-Met]”, the half-maximal inhibitory concentration (IC50) at ACE [1] was 10.3 ± 0.21 µM; against ACE [2] it was 11.4 ± 0.43 µM.
